One experiment deals with T1, Trypsin (Bos taurus, UniProt P00760).
T1 sequence (P00760 24-246): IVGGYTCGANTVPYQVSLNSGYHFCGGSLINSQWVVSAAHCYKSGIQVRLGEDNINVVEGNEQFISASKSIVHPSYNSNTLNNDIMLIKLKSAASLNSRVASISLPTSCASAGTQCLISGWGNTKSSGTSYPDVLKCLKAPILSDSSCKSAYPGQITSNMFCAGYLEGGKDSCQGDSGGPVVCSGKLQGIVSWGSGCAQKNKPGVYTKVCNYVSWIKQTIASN
Kind of experiment: Anti-trypsin activity (inhibition of TAME hydrolysis). The format is biochemical. To be noted: read-out: ID50, trypsin. The procedure: (§1) The anti-trypsin, anti-plasmin, anti-kallikrein and anti-thrombin activities were determined according to the method of Muramatsu et al. [M. Muramatsu, T. Onishi, S. Makino, Y. Hayashi and S. Fujii, J. of Biochem., 58, 214 (1965)]. The data summarized in Table 1 are expressed in terms of molar concentration (ID50) of the test compound which inhibits 50% of the activity of each enzyme to hydrolyze TAME (tosylarginine methyl ester). The compound No. corresponds to the compound number shown in Examples.

In a further experiment the target is Plasmin (Homo sapiens, UniProt P00747). Kind of experiment: Anti-plasmin activity (inhibition of TAME hydrolysis). It is filed as biochemical. Particulars: read-out: ID50, plasmin. The procedure:
as §1

The subject of the next experiment is Kallikrein. Kind of experiment: Anti-kallikrein activity (inhibition of TAME hydrolysis). The format is biochemical. Particulars: read-out: ID50, kallikrein. The procedure:
as §1

The next experiment addresses Thrombin (Homo sapiens, UniProt P00734). Briefly: biochemical. Particulars: TAME hydrolysis; read-out: ID50, thrombin.
Another experiment has as its target T2, Clr (Homo sapiens, UniProt P00736).
T2 sequence (P00736 464-705 limits assumed): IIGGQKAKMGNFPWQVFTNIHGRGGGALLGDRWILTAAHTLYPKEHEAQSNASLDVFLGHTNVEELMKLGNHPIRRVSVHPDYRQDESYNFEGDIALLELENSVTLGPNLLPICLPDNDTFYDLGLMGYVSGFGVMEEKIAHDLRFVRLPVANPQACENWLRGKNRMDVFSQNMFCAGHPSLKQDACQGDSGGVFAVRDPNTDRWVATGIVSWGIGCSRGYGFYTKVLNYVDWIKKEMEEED
T2 sequence (P00736 18-463 limits assumed): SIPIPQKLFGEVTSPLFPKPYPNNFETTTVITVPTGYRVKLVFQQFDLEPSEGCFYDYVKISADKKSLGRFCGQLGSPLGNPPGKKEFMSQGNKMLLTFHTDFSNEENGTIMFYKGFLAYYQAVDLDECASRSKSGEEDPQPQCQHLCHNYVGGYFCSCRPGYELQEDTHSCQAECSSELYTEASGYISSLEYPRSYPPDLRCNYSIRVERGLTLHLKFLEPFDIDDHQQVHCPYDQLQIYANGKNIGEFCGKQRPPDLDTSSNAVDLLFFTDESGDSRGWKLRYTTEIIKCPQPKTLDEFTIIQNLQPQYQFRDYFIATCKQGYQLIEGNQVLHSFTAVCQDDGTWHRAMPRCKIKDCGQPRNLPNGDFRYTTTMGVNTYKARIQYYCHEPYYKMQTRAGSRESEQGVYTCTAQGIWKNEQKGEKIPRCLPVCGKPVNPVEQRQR
Kind of experiment: Anti-Cl esterase activity, Clr (AAME hydrolysis). To be noted: hydrolysis of AAME; read-out: Anti-Cl activity, Clr (ID50). The format is biochemical. As for the experimental part:
The anti-Cl esterase ([…]) activity was determined according to the method of Okamura et al. [K. Okamura, M. Muramatsu and B. Fujii, Biochem. Biophys.

A further experiment relates to complement. Briefly: Inhibition of complement mediated hemolysis. The format is cell-based. The procedure:
The complement mediated hemolysis is widely used as a means to determine the titration of complement. The principle of this method is based on the fact that hemolysis if caused by the activation of complement, when the latter is added to a complex (immune complex) of erythrocytes and the antibody thereof. The degree of hemolysis varies in proportion to the amount of complement added. Therefore, when a known amount of complement admixed with a Cl esterase inhibitor is used, the hemolysis must be suppressed in proportion to the inhibitory activity.
The anti-Cl esterase (Clr, Cls) activity was determined according to the method of Okamura et al. [K. Okamura, M. Muramatsu and B. Fujii, Biochem. Biophys. […] The figures in Table 2 have the following meanings: […]

The target in a further experiment is T3, Cls (Homo sapiens, UniProt P09871).
T3 sequence (P09871 438-688 limits assumed): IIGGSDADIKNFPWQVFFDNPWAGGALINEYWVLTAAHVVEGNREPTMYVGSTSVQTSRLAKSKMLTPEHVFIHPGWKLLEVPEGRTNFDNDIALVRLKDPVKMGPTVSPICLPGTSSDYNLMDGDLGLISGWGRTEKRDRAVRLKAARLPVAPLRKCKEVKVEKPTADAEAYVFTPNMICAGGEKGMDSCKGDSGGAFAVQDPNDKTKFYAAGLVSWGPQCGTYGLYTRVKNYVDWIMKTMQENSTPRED
T3 sequence (P09871 16-437 limits assumed): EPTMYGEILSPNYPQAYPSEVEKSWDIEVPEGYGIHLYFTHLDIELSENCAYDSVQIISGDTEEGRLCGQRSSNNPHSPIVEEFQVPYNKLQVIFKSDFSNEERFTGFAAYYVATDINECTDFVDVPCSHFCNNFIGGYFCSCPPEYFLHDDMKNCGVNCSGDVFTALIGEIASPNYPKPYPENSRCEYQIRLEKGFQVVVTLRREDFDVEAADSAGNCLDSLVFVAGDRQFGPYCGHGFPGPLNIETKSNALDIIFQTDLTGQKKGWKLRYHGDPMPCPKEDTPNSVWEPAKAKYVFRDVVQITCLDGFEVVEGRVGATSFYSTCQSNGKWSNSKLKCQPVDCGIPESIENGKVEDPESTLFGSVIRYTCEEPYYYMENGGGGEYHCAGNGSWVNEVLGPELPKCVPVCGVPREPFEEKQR
Kind of experiment: Anti-Cl esterase activity, Cls (ATEE hydrolysis). It is filed as biochemical. To be noted: hydrolysis of ATEE; read-out: Anti-Cl activity, Cls (50% inhibition). The procedure: The anti-Cl esterase (Clr, Cls) activity was determined according to the method of Okamura et al. [K. Okamura, M. Muramatsu and B. Fujii, Biochem. Biophys. […] The figures in Table 2 have the following meanings:
Cls: Molar concentration of the test compound which inhibits 50% of the ability of Cls to hydrolyse ATEE (acetyltyrosin ethyl ester).

Molecules are shown by their SMILES. Where only a bound is given, the exact number is not on record here.

Sequence of Plasmin (P00747 581-810 limits assumed, species assumed): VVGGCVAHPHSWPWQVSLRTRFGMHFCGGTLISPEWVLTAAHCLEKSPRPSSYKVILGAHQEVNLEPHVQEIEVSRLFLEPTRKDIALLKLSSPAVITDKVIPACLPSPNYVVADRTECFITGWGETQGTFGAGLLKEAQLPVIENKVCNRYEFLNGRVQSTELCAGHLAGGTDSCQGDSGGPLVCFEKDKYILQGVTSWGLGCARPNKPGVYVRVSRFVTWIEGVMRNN
Sequence of Plasmin (P00747 97-580 limits assumed, species assumed): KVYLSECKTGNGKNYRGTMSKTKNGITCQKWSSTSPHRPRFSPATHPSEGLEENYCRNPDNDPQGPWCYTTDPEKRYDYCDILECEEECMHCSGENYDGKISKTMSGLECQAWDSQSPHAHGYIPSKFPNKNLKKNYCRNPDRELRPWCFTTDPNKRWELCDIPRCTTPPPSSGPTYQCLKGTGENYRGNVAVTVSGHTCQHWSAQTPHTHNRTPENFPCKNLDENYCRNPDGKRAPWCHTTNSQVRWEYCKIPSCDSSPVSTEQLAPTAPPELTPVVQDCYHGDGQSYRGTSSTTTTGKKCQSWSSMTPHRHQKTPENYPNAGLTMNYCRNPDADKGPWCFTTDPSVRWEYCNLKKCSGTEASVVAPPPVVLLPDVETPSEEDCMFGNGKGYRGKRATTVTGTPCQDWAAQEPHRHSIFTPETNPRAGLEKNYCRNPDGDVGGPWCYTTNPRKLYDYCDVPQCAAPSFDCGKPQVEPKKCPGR

As to `CC(=O)Oc1ccc(C(=N)N)cc1C(=O)c1ccccc1` [Compound 1, 4-amidino-2-benzoylphenyl acetate], the IC50 on Trypsin, on Plasmin, with Kallikrein, at Thrombin and on Clr was more than 10 µM in each case. The “Inhibition of complement mediated hemolysis (%)” value (shortened to “Inhibition … (%)”) is reported as 95.9% with complement (compound at 1 × 10^-4), 37.3% in the experiment on complement (compound at 1 × 10^-5), 16.0% in the experiment on complement (compound at 1 × 10^-6) and 0% in the experiment with complement (compound at 1 × 10^-7).

Take `CC(=O)Oc1ccc(C(=N)N)cc1[N+](=O)[O-]` [Compound 2, 4-amidino-2-nitrophenyl acetate]: the IC50 at Trypsin, at Plasmin, in the experiment on Kallikrein and at Thrombin was more than 10 µM each time. Besides, the “Inhibition … (%)” value in the experiment with complement (compound at 1 × 10^-4) was 97.3%; in the experiment with complement (compound at 1 × 10^-5), 30.1%; with complement (compound at 1 × 10^-6), 3.9%; in the experiment with complement (compound at 1 × 10^-7), 2.1%.

For the compound `N=C(N)c1ccc(OC(=O)C2CC2)c([N+](=O)[O-])c1` [Compound 7, 4-amidino-2-nitrophenyl cyclopropanecarboxylate], the IC50 at Trypsin is more than 10 µM; on Plasmin it was 4 µM; with Kallikrein it was more than 10 µM; on Thrombin, 0.5 µM; on Clr, more than 10 µM. Also, the “Inhibition … (%)” value with complement (compound at 1 × 10^-4) is 99.0%; with complement (compound at 1 × 10^-5), 78.2%; in the experiment on complement (compound at 1 × 10^-6) it was 10.2%; in the experiment on complement (compound at 1 × 10^-7) it was 1.7%.

On to `N=C(N)c1ccc(OC(=O)C2CC2)c(C(=O)c2ccccc2)c1` [Compound 8], for which the IC50 at Trypsin was 2 µM; at Plasmin, 2 µM; with Kallikrein, 3 µM; on Clr, more than 10 µM. For the same compound, the “Inhibition … (%)” value amounted to 90.5% in the experiment on complement (compound at 1 × 10^-5), 22.0% in the experiment on complement (compound at 1 × 10^-6) and 0% in the experiment with complement (compound at 1 × 10^-7).

Regarding `N=C(N)c1ccc(OC(=O)CCNC(=O)OCc2ccccc2)c(C(=O)c2ccccc2)c1` [Compound 10, 4-amidino-2-benzoylphenyl 3-benzyloxycarbonylaminopropionate], the IC50 is more than 10 µM on Trypsin; more than 10 µM at Plasmin; more than 10 µM in the experiment on Kallikrein; 2 µM on Thrombin; more than 10 µM at Clr. The “Inhibition … (%)” value with complement (compound at 1 × 10^-4) came out at 95.9%; in the experiment with complement (compound at 1 × 10^-5), 80.3%; with complement (compound at 1 × 10^-6) it was 17.0%; in the experiment on complement (compound at 1 × 10^-7), 2.3%.

Take `N=C(N)c1ccc(OC(=O)CCN)c(C(=O)c2ccccc2)c1` [Compound 11, 4-amidino-2-benzoylphenyl 3-aminopropionate]: the IC50 at Trypsin, on Plasmin, in the experiment with Kallikrein, at Thrombin and at Clr was more than 10 µM throughout. The “Inhibition … (%)” value in the experiment with complement (compound at 1 × 10^-4) is on record as 17.4%; in the experiment with complement (compound at 1 × 10^-5), 2.5%; with complement (compound at 1 × 10^-6), 2.5%; with complement (compound at 1 × 10^-7) it was 3.5%.

Turning to `COc1cc(C(=N)N)ccc1OC(=O)c1ccccc1` [Compound 23, 4-amidino-2-methoxyphenyl benzoate], the IC50 at Trypsin was 10 µM; on Plasmin it was 20 µM; in the experiment on Kallikrein, 60 µM; on Thrombin it was 0.2 µM; at Clr, 7 µM; on Cls it was 5 µM.

For the compound `COC(=O)c1cc(C(=N)N)ccc1OC(=O)c1ccccc1` [Compound 25, 4-amidino-2-methoxycarbonylphenyl benzoate], the IC50 at Trypsin was 0.3 µM; on Plasmin, 0.6 µM; with Kallikrein it was more than 10 µM; at Clr, 4 µM; at Cls, 0.2 µM. The “Inhibition … (%)” value in the experiment with complement (compound at 1 × 10^-4) is reported as 100.0%; in the experiment with complement (compound at 1 × 10^-5), 93.1%; with complement (compound at 1 × 10^-6) it was 38.6%; in the experiment on complement (compound at 1 × 10^-7), 11.6%.

Take `CSc1ccc(C(=O)Oc2ccc(C(=N)N)cc2C(=O)c2ccccc2)cc1` [Compound 49]: the IC50 was 0.03 µM at Trypsin; 0.2 µM at Plasmin; 0.4 µM with Kallikrein; less than 0.01 µM at Thrombin; 1 µM at Clr. Also, the “Inhibition … (%)” value was 83.8% with complement (compound at 1 × 10^-4), 94.6% with complement (compound at 1 × 10^-5), 97.5% in the experiment with complement (compound at 1 × 10^-6) and 75.1% in the experiment on complement (compound at 1 × 10^-7).

As to `N=C(N)c1ccc(OC(=O)c2ccc(F)cc2)c([N+](=O)[O-])c1` [Compound 85], the IC50 at Clr worked out at 0.6 µM; on Cls, 0.5 µM. Besides, the “Inhibition … (%)” value with complement (compound at 1 × 10^-4) turned out to be 98.6%; in the experiment on complement (compound at 1 × 10^-5), 97.9%; with complement (compound at 1 × 10^-6) it was 67.1%; with complement (compound at 1 × 10^-7), 7.0%.

On to `Cc1cccc(Nc2ccccc2C(=O)Oc2ccc(C(=N)N)cc2C(=O)c2ccccc2)c1C` [Compound 87], for which the results for the IC50 on Clr and at Cls were more than 10 µM and 5 µM, respectively. Also, the “Inhibition … (%)” value with complement (compound at 1 × 10^-4), with complement (compound at 1 × 10^-5), in the experiment on complement (compound at 1 × 10^-6) and in the experiment on complement (compound at 1 × 10^-7) was 0% in each case.

These data come from US4570006A, “Amidine compound, process for producing same and anti-complement agent comprising same” (Torii & Co. Ltd., priority 1981, dated 1986).
